Measured values: US20260014122A1, “DRUG FOR LOWERING BLOOD LDL CHOLESTEROL” (KOWA COMPANY, LTD., priority 2022, published 2026)

Tested on: patient of a nonalcoholic fatty liver disease (NAFLD)
Assay: Effect of compound A on blood LDL-C and cholesterol synthesis/absorption markers in NAFLD patients, compared with placebo
Type: in vivo, human
Settings: for fasting blood LDL-C concentration (rate of change from baseline): FIG. 1
[1] = NAFLD patients, 0.4 mg per day oral, 8 weeks, vs placebo, FIG. 3

In the case of `CC[C@@H](Oc1cccc(CN(CCCOc2ccc(OC)cc2)c2nc3ccccc3o2)c1)C(=O)O` [compound A, (R)-2-[3-[[N-(benzoxazol-2-yl)-N-3-(4-methoxyphenoxy)propyl]aminomethyl]phenoxy]butyric acid], the “fasting blood LDL-C concentration (rate of change from baseline)” value (NAFLD patients who did not take any existing agent for reducing LDL-C, 0.4 mg per day oral, 12 weeks, vs placebo) is reported as “reduced a fasting blood LDL-C concentration as compared to the placebo administration”, the “fasting blood LDL-C concentration (rate of change from baseline)” value (NAFLD patients, entire group including patients taking an existing agent for reducing LDL-C, 0.4 mg per day oral (0.2 mg twice a day), 12 weeks, vs placebo) is reported as “reduced a fasting blood LDL-C concentration as compared to the placebo administration” and the “fasting blood concentration of campesterol (absorption marker for cholesterol), rate of change from baseline” value [1] is reported as “reduced the fasting blood concentration of sitosterol and the fasting blood concentration of campesterol”. The “fasting blood concentration of lathosterol (synthesis marker for cholesterol), rate of change from baseline” value [1] was “reduced the fasting blood concentration of lathosterol”, the “fasting blood concentration of sitosterol (absorption marker for cholesterol), rate of change from baseline” value [1] was “reduced the fasting blood concentration of sitosterol” and the “reducing effect on LDL-C for each initial value of the blood LDL-C” value (NAFLD patients, 0.4 mg per day oral, 12 weeks, FIG. 2) was “became larger as the blood LDL-C concentration before the administration thereof increased”.
